Reference: paper PMC2655231 (Cancer research, 2009)

Columns and labels:
Assay in all cases: in vitro radiometric kinase assay
Format in all cases: biochemical
Aurora B kinase = Aurora B kinase (Xenopus laevis, UniProt Q6DE08)
Cdk5/p25 = Cdk5/p25 (Homo sapiens, UniProt Q00535)
Aurora A kinase = target: T1, Aurora A kinase (Homo sapiens, UniProt O14965)
T1 sequence (O14965 122-403): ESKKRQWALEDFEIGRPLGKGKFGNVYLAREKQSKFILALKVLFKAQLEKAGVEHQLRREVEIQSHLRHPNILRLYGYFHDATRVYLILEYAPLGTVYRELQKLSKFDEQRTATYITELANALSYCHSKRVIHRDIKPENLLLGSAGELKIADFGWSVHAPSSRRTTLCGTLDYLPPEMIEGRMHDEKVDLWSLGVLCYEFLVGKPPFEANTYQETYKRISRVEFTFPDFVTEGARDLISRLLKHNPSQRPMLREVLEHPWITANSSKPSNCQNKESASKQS
T1 sequence (Q9ULW0 1-747 partner): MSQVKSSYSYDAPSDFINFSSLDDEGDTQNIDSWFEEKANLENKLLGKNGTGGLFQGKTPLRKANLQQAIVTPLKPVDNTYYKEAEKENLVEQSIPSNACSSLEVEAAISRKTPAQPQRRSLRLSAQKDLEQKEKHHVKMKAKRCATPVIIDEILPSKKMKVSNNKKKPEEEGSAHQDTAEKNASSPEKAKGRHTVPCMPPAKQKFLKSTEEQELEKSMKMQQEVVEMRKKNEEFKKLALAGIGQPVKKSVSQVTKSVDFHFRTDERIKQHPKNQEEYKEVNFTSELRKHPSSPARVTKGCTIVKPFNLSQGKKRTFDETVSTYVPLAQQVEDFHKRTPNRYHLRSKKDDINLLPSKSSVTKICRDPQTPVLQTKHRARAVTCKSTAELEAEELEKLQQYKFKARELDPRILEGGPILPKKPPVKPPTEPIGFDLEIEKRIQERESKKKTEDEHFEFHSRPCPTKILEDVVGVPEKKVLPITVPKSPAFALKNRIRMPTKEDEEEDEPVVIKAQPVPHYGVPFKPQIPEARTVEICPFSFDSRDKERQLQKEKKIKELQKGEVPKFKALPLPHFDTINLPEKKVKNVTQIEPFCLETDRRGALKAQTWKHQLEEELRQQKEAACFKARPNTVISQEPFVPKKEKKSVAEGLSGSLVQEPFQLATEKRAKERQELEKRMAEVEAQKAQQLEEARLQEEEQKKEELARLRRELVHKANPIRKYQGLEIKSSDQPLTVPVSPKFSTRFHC

Cdk1/cyclinB = Cdk1/cyclinB (Homo sapiens, UniProt P06493)
Cdk1/cyclinB, sequence (P06493 whole entry): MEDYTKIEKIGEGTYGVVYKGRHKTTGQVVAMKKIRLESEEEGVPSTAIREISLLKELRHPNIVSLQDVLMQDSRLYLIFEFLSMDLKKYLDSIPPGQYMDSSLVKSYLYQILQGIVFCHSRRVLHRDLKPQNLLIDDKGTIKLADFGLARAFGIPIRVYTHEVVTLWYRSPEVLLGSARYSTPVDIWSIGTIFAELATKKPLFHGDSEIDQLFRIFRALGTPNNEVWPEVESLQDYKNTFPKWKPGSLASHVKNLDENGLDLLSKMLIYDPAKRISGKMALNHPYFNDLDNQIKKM
Cdk1/cyclinB, sequence (P14635 whole entry partner): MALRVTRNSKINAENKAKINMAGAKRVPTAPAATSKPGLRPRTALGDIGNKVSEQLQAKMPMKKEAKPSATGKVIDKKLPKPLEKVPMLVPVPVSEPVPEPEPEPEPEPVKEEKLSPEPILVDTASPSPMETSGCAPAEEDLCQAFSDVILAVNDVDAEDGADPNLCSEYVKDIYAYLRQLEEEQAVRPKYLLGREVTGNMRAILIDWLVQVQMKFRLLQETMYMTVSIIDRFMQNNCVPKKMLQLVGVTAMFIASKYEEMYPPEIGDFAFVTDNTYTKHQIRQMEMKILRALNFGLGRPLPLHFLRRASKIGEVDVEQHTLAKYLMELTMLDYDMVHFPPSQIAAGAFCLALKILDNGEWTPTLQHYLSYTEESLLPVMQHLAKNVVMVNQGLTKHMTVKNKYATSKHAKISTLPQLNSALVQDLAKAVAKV

Cdk5/p25, sequence (Q00535 whole entry): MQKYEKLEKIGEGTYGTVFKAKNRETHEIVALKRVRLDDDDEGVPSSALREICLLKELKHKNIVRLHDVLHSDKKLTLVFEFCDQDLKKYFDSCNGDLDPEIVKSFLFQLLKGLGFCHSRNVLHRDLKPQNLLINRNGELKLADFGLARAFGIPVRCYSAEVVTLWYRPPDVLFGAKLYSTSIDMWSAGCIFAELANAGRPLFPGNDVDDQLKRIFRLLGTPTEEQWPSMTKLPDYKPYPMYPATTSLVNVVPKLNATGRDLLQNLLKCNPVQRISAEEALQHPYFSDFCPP
Cdk5/p25, sequence (Q15078 2-307 partner): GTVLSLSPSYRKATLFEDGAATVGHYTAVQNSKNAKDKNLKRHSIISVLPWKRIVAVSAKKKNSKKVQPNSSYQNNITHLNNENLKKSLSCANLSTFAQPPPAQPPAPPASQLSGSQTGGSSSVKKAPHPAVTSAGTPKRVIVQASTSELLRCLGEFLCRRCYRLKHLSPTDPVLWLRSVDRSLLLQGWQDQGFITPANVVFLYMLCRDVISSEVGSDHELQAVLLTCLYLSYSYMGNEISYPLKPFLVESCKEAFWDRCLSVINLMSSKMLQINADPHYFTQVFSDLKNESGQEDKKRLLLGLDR
Aurora B kinase, sequence (Q6DE08 60-361 limits assumed): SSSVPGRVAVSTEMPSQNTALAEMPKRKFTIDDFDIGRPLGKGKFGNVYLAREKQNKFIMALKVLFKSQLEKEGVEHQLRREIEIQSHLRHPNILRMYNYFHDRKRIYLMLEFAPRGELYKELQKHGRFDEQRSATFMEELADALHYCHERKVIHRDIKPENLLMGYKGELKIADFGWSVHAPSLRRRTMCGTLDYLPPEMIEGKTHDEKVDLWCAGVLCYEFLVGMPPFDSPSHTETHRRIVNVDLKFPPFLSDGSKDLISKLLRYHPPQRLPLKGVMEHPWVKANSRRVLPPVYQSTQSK
Aurora B kinase, sequence (O13024 whole entry partner): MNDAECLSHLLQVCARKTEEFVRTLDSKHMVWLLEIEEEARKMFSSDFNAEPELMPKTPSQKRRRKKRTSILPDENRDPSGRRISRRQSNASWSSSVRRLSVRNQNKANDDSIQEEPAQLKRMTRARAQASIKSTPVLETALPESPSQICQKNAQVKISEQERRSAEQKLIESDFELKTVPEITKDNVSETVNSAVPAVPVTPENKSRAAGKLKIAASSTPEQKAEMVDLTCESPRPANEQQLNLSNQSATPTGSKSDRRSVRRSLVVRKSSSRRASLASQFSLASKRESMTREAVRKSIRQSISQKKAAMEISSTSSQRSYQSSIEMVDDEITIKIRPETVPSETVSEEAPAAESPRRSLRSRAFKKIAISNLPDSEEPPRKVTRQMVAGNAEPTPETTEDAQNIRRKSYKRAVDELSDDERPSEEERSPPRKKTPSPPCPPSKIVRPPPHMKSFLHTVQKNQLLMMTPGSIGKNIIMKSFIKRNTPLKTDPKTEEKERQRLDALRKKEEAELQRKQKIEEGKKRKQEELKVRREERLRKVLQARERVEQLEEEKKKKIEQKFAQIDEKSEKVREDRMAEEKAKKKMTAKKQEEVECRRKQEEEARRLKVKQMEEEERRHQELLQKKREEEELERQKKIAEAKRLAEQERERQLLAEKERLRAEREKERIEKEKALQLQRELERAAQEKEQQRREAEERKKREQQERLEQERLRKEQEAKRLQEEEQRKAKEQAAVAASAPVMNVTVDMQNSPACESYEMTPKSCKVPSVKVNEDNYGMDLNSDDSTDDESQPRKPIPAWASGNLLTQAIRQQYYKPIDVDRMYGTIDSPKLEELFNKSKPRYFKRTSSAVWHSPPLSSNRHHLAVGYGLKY

IC50 (Aurora B kinase): 2.4 µM | IC50 (Cdk5/p25): ~20 µM | IC50 (Aurora A kinase): 21.7 µM | IC50 (Cdk1/cyclinB): ~20 µM
Compound: COc1cc(/C=N/NC(=O)c2sc(N)nc2C)ccc1O [OM137]
